Source: article PMC4452934 (CPT: Pharmacometrics & Systems Pharmacology, 2015)

Assay: Excretion in bile-duct cannulated rats
Format: in vivo, rat

With CCn1c(C(=O)N(C2CC2)C2CC2)cc2c3c(ncn3C)c(Nc3cc(C)n(C)n3)nc21 [BMS-911543] the “direct excretion in bile and urine” value was < 2 % of total clearance.
